# Measured values from US7589122B2, “Method for soybean aphid population suppression and monitoring using aphid- and host-plant-associated semiochemical compositions” (MSTRS Technologies, Inc., priority 2004, dated 2009).
# Experiments:
# [1] = system: antennae of winged soybean aphids, Aphis glycines; assay: EAG responses of winged soybean aphids to soybean associated volatile compounds; conditions: relative to the control (FIG. 3)
# Text: FIG. 3 is a graph of EAG responses of winged soybean aphids, Aphis glycines, to some soybean associated volatile compounds.
# EAG responses of soybean aphids to soybean plant volatiles and their attractiveness in the field. […] All other compounds elicited EAG responses seemed not to be attractive to winged aphids relative to the control.
# [2] = system: gynoparous female antennae of soybean aphids; assay: EAG dose-response of gynoparous female soybean aphid antennae to synthetic pheromone compounds; set-up: species or system Aphis glycines; conditions: when pheromone exceeded a 1 mg dosage (FIG. 11 lower)
# Text: FIG. 11 is two graphs of EAG dose-response curves from male (upper part) and gynoparous female antennae (lower part) of soybean aphids to synthetic pheromone candidate compounds (n=4; different letters within a series indicate significant differences, ANOVA followed by FPLSD test, P<0.05)
# EAG dose-responses of male and gynoparous soybean aphids to the identified sex pheromone compounds.
# [3] = system: male and gynoparous female soybean aphids; assay: Field trapping of male and gynoparous soybean aphids with synthetic sex pheromone lures; assay type: in vivo, Aphis glycines; conditions: synthetic pheromone lures 10 mg, soybean fields (FIG. 12)
# Description: FIG. 16 is a graph of mean number of winged soybean aphids caught in water traps baited with different combinations of catnip oil and the two pheromone compounds (n=5, columns with no letters in common are significant different, ANOVA followed by FPLSD test, P<0.05)
# (§1) Field Test. Field trapping tests were conducted in soybean field from 2002 to 2003 (Ames, Iowa). Synthetic compounds at a dose of 100 mg (for plant volatiles) and 10 mg for soybean aphid pheromones were prepared in either hexane or methylene chloride or ether. Medical peerless cotton rolls (5 cm long, 100% cotton) were used as dispensers for loading plant volatiles, and borosilicate glass vials (Chromal) were housed for pheromones. Two trap designs were used, and the first type is similar to that described in Zhu et al., (1999), and the second one is the most common trap used for aphid trapping, the water trap. The trap was hung from bamboo stakes, 1.2 m above the ground. Within a replicate (N=5-6), traps were set at least 10 m apart. The traps were checked daily, and trap position within a series was randomized to minimize the effects of habitat heterogeneity.
# winged soybean aphids = assay: Field trapping of winged soybean aphids with selected soybean volatile compounds; assay type: in vivo, Aphis glycines; conditions: traps baited with synthetic soybean volatile, 100 mg, soybean field (FIG. 4)
# Description: FIG. 4 is a graph of the number of winged soybean aphids caught per trap baited with some selected soybean volatile compounds (synthetic) in the soybean field.
# as §1
# syrphids = assay: Field trapping of predatory insects with attractant compounds: syrphids; assay type: in vivo, Syrphidae (syrphids); conditions: 100 mg bait, Iowa soybean field 2003 (FIG. 7)
# Description: (§2) FIG. 7 is a graph of the mean number of predatory insects caught in traps baited with 100 mg of methyl salicylate and 2-phenylethanol, and the control from an Iowa soybean field in 2003.
# as §1
# [4] = system: Coccinella septempunctata; assay: Field trapping of predatory insects with attractant compounds: Coccinella septempunctata; assay type: in vivo; conditions: 100 mg bait, Iowa soybean field 2003 (FIG. 7)
# Description: as §2
# FIG. 8 is a graph of the mean number of Coccinella septempunctata caught in traps baited with different doses of methyl salicylate from an Iowa soybean field in 2004.
# as §1
# Harmonia axyridis = assay: Field trapping of predatory insects with attractant compounds: Harmonia axyridis; assay type: in vivo; conditions: 100 mg bait, vs control (FIG. 7)
# Description: as §2, §1
# [5] = system: soybean aphids on soybean plants; assay: Caged greenhouse experiment: effect of methyl salicylate on soybean aphid colonizing and growth; assay type: in vivo, Aphis glycines
# Description: The effect of Methyl salicylate on soybean aphid growth. This experiment was conducted in the green house, where cages of soybean plants treated with dispensers loaded 4 g of synthetic methyl salicylate. Newly emerged winged soybean aphids on one cut-soybean leaf (dried) were placed in the middle of the cage, which is 30 cm away from the potted soybean plants (V2 stage) with or without treatment of methyl salicylate. For plants treated with methyl salicylate, the cotton roll was placed in the center of the plant, and was replaced with a newly loaded one after one week. The number of winged aphids on each plant were counted 2 hours after introducing the winged aphids, and continued for a week. The number of wingless soybean aphids produced from those landed winged aphids was also counted everyday for about two weeks.
smiles,measurement,setting,value
C=CC(C)(O)CCC=C(C)C (stereo not shown) [linalool],EAG responses of winged soybean aphids,[1],significantly stronger than the control
"CC1=COC(=O)[C@H]2[C@@H]1CC[C@@H]2C [nepetalactone, (4aS,7S,7aR)-nepetalactone]",EAG response of gynoparous female antennae,[2],higher EAG response
same,number of male and gynoparous soybean aphids caught in traps,[3],Significantly lower catches
CC/C=C\CCOC(C)=O [(Z)-3 hexenyl acetate],EAG responses of winged soybean aphids,[1],significantly stronger than the control
CC/C=C\CCO [(Z)-3 Hexenol],EAG responses of winged soybean aphids,[1],significantly stronger than the control
O=Cc1ccccc1 [benzaldehyde],EAG responses of winged soybean aphids,[1],significantly stronger than the control
same,number of winged soybean aphids caught per trap,winged soybean aphids,caught the most
CC(=O)CCC=C(C)C [6-methyl-5-hepten-2-one],EAG responses of winged soybean aphids,[1],significantly stronger than the control
"CC1=CO[C@@H](O)[C@H]2[C@@H]1CC[C@@H]2C [nepetalactol, (1R,4aS,7S,7aR)-nepetalactol]",number of male and gynoparous soybean aphids caught in traps,[3],Significantly lower catches
OCCc1ccccc1 [2-phenylethanol],EAG responses of winged soybean aphids,[1],significantly stronger than the control
same,attraction of syrphids to baited traps,syrphids,strongest attraction
COC(=O)c1ccccc1O [methyl salicylate],EAG responses of winged soybean aphids,[1],significantly stronger than the control
same,attraction of adults of Coccinella septempunctata to baited traps,[4],significantly attractive
same,attraction of syrphids to baited traps,syrphids,attracted to some syrphids
same,number of Harmonia axyridis caught in baited traps,Harmonia axyridis,not significantly differed from the control
same,growth of wingless soybean aphids on soybean leaves,[5]; caged potted soybean plants treated vs untreated (FIG. 17 lower),suppress the growth
same,soybean aphid colonizing on soybean plants (winged aphids found on potted plants),[5]; caged potted soybean plants treated vs untreated (FIG. 17 upper),significantly reducing
C=CC(C)=CCC=C(C)C [ocimene],EAG responses of winged soybean aphids,[1],significantly stronger than the control
CCC/C=C/C=O [(E)-2 hexenal],EAG responses of winged soybean aphids,[1],highest response
